Test results published in patent US6395766B1, “Tetrahydroindolone derivatives as gabaaalpha5 ligands for enhancing cognition” (Merck Sharp & Dohme Limited, priority 1998, dated 2002).

SMILES	melting point [°C]
CC1(C)CC(=O)c2c(C(C)(C)C)cn(-c3ccccn3)c2C1 [Example 2, 6,6-Dimethyl-3-(1,1-dimethylethyl)-1-(pyridin-2-yl)-4,5,6,7-tetrahydroindol-4-one]	143 to 145
CC1(C)CC(=O)c2c(SCc3ccccc3)cn(-c3ccccn3)c2C1 [Example 14, 6,6-Dimethyl-3(phenylmethyl)thio-1-(pyridin-2-yl)-4,5,6,7-tetrahydroindol-4-one]	190 to 192
CC1(C)CC(=O)c2c(-c3cncs3)cn(-c3ccccn3)c2C1 [Example 21, 6,6-Dimethyl-1-(pyridin-2-yl)-3-(thiazol-5-yl)-4,5,6,7-tetrahydroindol-4-one]	167 to 169
C=Cc1cn(-c2ccccn2)c2c1C(=O)CC(C)(C)C2 [Example 18, 6,6-Dimethyl-1-(pyridin-2-yl)-3-vinyl-4,5,6,7-tetrahydroindol-4-one]	150 to 154
CC1(C)CC(=O)c2c(Nc3ccccn3)cn(-c3ccccn3)c2C1 [Example 23, 6,6-Dimethyl-1-(pyridin-2-yl)-3-(pyridin-2-ylamino)-4,5,6,7-tetrahydroindol-4-one]	180 to 183
CCc1cn(-c2nccs2)c2c1C(=O)CC(C)(C)C2 [Example 5, 6,6-Dimethyl-3-ethyl-1-(thiazol-2-yl)-4,5,6,7-tetrahydroindol-4-one]	58 to 60
CC1(C)CC(=O)c2c(-c3nccs3)cn(-c3ccccn3)c2C1 [Example 15, 6,6-Dimethyl-1-(pyridin-2-yl)-3-(thiazol-2-yl)-4,5,6,7-tetrahydroindol-4-one]	166 to 168
CC1(C)CC(=O)c2c(Cc3ccccc3)cn(-c3ccccn3)c2C1 [Example 19, 6,6-Dimethyl-3-phenylmethyl-1-(pyridin-2-yl)-4,5,6,7-tetrahydroindol-4-one]	111 to 113
CCc1cn(-c2ccccn2)c2c1C(=O)CC(C)(C)C2 [Example 1, 6,6-Dimethyl 3-Ethyl-1-(pyridin-2-yl)-4,5,6,7-tetrahydroindol-4-one]	125 to 127
CCc1cn(-c2ncccn2)c2c1C(=O)CC(C)(C)C2 [Example 4, 3-Ethyl-6,6-dimethyl-1-(pyrimidin-2-yl)-4,5,6,7-tetrahydroindol-4-one]	111 to 114
CC1(C)CC(=O)c2c(Nc3ccccc3)cn(-c3ccccn3)c2C1 [Example 22, 6,6-Dimethyl-3-phenylamino-1-(pyridin-2-yl)-4,5,6,7-tetrahydroindol-4-one]	135 to 138
CC1(C)CC(=O)c2c(-c3ccccc3)cn(-c3ccccn3)c2C1 [Example 16, 6,6-Dimethyl-3-phenyl-1-(pyridin-2-yl)-4,5,6,7-tetrahydroindol-4-one]	160 to 162
CC1(C)CC(=O)c2c(-c3ccccn3)cn(-c3ccccn3)c2C1 [Example 17, 6,6-Dimethyl-1-(pyridin-2-yl)-3-(pyridin-2-yl)-4,5,6,7-tetrahydroindol-4-one]	171 to 174
